The record followed here is ChEMBL document CHEMBL1135084, “DNA cleavage by aromatic amines” (Bioorg Med Chem Lett, 2002).

What all share (assay type): functional
What all share (conditions): Enterobacteria phage phiX174

The test system of experiment [1] is Nucleic Acid. Briefly: Percent DNA cleavage induced by administering the compound (0.1 uM) within 24 hr to form RfI DNA was determined by using phiX174 bacteriophage DNA.
Experiment [2] deals with Nucleic Acid. Nature of the experiment: Percent DNA cleavage induced by administering the compound (0.1 uM) within 24 hr to form RfII DNA was determined by using phiX174 bacteriophage DNA.
In experiment [3] the test system is Nucleic Acid. Briefly: Percent DNA cleavage induced by administering the compound (0.1 uM) within 24 hr to form RfIII DNA was determined by using phiX174 bacteriophage DNA.
For experiment [4], the system named is Nucleic Acid. Briefly: Percent DNA cleavage induced by administering the compound (1.0 uM) within 12 hr to form RfIII DNA was determined by using phiX174 bacteriophage DNA.
The test system of experiment [5] is Nucleic Acid. Nature of the experiment: Percent DNA cleavage induced by administering the compound (1.0 uM) within 48 hr to form RfIII DNA was determined by using phiX174 bacteriophage DNA.
For experiment [6], the system named is Nucleic Acid. Nature of the experiment: Percent DNA cleavage induced by administering the compound (1.0 uM) within 48 hr to form RfI DNA was determined by using phiX174 bacteriophage DNA.
The subject of experiment [7] is Nucleic Acid. Nature of the experiment: Percent DNA cleavage induced by administering the compound (1.0 uM) within 48 hr to form RfII DNA was determined by using phiX174 bacteriophage DNA.
Experiment [8] concerns Nucleic Acid. Briefly: Percent DNA cleavage induced by administering the compound (1.0 uM) within 12 hr to form RfII DNA was determined by using phiX174 bacteriophage DNA.
Experiment [9] deals with Nucleic Acid. Nature of the experiment: Percent DNA cleavage induced by administering the compound (1.0 uM) within 12 hr to form RfI DNA was determined by using phiX174 bacteriophage DNA.
Experiment [10] has as its system Nucleic Acid. Nature of the experiment: Percent DNA cleavage induced by administering the compound (0.1 uM) within 12 hr to form RfII DNA was determined by using phiX174 bacteriophage DNA.
Experiment [11] relates to Nucleic Acid. Nature of the experiment: Percent DNA cleavage induced by administering the compound (0.1 uM) within 12 hr to form RfI DNA was determined by using phiX174 bacteriophage DNA.
In experiment [12] the test system is Nucleic Acid. Briefly: Percent DNA cleavage induced by administering the compound (0.1 uM) within 12 hr to form RfIII DNA was determined by using phiX174 bacteriophage DNA.
Experiment [13] has as its system Nucleic Acid. Briefly: Percent DNA cleavage induced by administering the compound (1.0 uM) within 12 hr to form RfIII DNA was determined by using phiX174 bacteriophage DNA by using phiX174 bacteriophage DNA.
The test system of experiment [14] is Nucleic Acid. Nature of the experiment: Percent DNA cleavage induced by administering the compound within 12 hr to form RfI DNA was determined by using phiX174 bacteriophage DNA.
The test system of experiment [15] is Nucleic Acid. Briefly: Percent DNA cleavage induced by administering the compound (0.1uM), additive 10 uM distamycin A within 24 hr to form RfI DNA was determined by using phiX174 bacteriophage DNA.
Experiment [16] concerns Nucleic Acid. Briefly: Percent DNA cleavage induced by administering the compound (0.1 uM), additive Ar/N2 within 12 hr to form RfI DNA was determined by using phiX174 bacteriophage DNA.
The subject of experiment [17] is Nucleic Acid. Briefly: Percent DNA cleavage induced by administering the compound (0.1 uM) within 48 hr to form RfIII DNA was determined by using phiX174 bacteriophage DNA.
In experiment [18] the test system is Nucleic Acid. Briefly: Percent DNA cleavage induced by administering the compound (0.1 uM), additive 1000 uM distamycin A within 24 hr to form RfIII DNA was determined by using phiX174 bacteriophage DNA.
In experiment [19] the test system is Nucleic Acid. Briefly: Percent DNA cleavage induced by administering the compound (0.1 uM), additive 10 mM aliquots of metal chlorides M2+/3- within 12 hr to form RfII DNA was determined by using phiX174 bacteriophage DNA.
Experiment [20] has as its system Nucleic Acid. Briefly: Percent DNA cleavage induced by administering the compound (0.1 uM), additive 100 uM distamycin A within 24 hr to form RfI DNA was determined by using phiX174 bacteriophage DNA.
For experiment [21], the system named is Nucleic Acid. Nature of the experiment: Percent DNA cleavage induced by administering the compound (0.1 uM), additive 1000 uM distamycin A within 24 hr to form RfI DNA was determined by using phiX174 bacteriophage DNA.
The test system of experiment [22] is Nucleic Acid. Briefly: Percent DNA cleavage induced by administering the compound (0.1 uM), additive 10 uM distamycin A within 24 hr to form RfII DNA was determined by using phiX174 bacteriophage DNA.
In experiment [23] the test system is Nucleic Acid. Nature of the experiment: Percent DNA cleavage induced by administering the compound (0.1 uM), additive Ar/N2 within 12 hr to form RfII DNA was determined by using phiX174 bacteriophage DNA.
The test system of experiment [24] is Nucleic Acid. Briefly: Percent DNA cleavage induced by administering the compound (0.1 uM), additive 10 uM distamycin A within 24 hr to form RfIII DNA was determined by using phiX174 bacteriophage DNA.
Experiment [25] deals with Nucleic Acid. Nature of the experiment: Percent DNA cleavage induced by administering the compound (0.1 uM), additive 1000 uM distamycin A within 24 hr to form RfII DNA was determined by using phiX174 bacteriophage DNA.
For experiment [26], the system named is Nucleic Acid. Briefly: Percent DNA cleavage induced by administering the compound (0.1 uM) within 48 hr to form RfII DNA was determined by using phiX174 bacteriophage DNA.
The subject of experiment [27] is Nucleic Acid. Nature of the experiment: Percent DNA cleavage induced by administering the compound (0.1 uM) within 48 hr to form RfI DNA was determined by using phiX174 bacteriophage DNA.
The test system of experiment [28] is Nucleic Acid. Briefly: Percent DNA cleavage induced by administering the compound (0.1 uM), additive 10 mM aliquots of metal chlorides M2+/3- within 12 hr to form RfIII DNA was determined by using phiX174 bacteriophage DNA.
Experiment [29] deals with Nucleic Acid. Briefly: Percent DNA cleavage induced by administering the compound (0.1 uM), additive 100 uM distamycin A within 24 hr to form RfIII DNA was determined by using phiX174 bacteriophage DNA.
Experiment [30] relates to Nucleic Acid. Nature of the experiment: Percent DNA cleavage induced by administering the compound (0.1 uM), additive 10 mM aliquots of metal chlorides M2+/3- within 12 hr to form RfI DNA was determined by using phiX174 bacteriophage DNA.
Experiment [31] concerns Nucleic Acid. Briefly: Percent DNA cleavage induced by administering the compound (0.1 uM), additive Ar/N2 within 12 hr to form RfIII DNA was determined by using phiX174 bacteriophage DNA.
Experiment [32] has as its system Nucleic Acid. Nature of the experiment: Percent DNA cleavage induced by administering the compound (0.1 uM), additive 100 uM distamycin A within 24 hr to form RfII DNA was determined by using phiX174 bacteriophage DNA.
The subject of experiment [33] is Nucleic Acid. Nature of the experiment: Percent DNA cleavage induced by administering the compound (0.1 uM) within 24hto form RfIII DNA was determined by using phiX174 bacteriophage DNA.

Values joined by “and” are separate entries in the source; they are usually repeats but may differ in a detail not shown here. Equal values may be shown once.

Consider `Nc1cccc(C(=O)Nc2cc(NC(=O)c3ccccc3)cc(C(=O)NCNC(=O)c3cc(NC(=O)c4ccccc4)cc(NC(=O)c4cccc(N)c4)c3)c2)c1`, for which the Cleavage in the experiment with Nucleic Acid [1] came out at 0%; in the experiment on Nucleic Acid [2], 100%; in the experiment on Nucleic Acid [3], 0%.

`CCOC(=O)c1cc(NC(=O)c2cccc(N)c2)cc(NC(=O)c2cccc([N+](=O)[O-])c2)c1`: the Cleavage in the experiment with Nucleic Acid [4] is 0%; in the experiment with Nucleic Acid [5], 25%; with Nucleic Acid [6] it was 0%; in the experiment on Nucleic Acid [7], 75%; in the experiment with Nucleic Acid [8], 99%; in the experiment on Nucleic Acid [9], 1%.

Take `Nc1cccc(C(=O)Nc2cc(NC(=O)c3ccccc3)cc(C(=O)NCCCCCNC(=O)c3cc(NC(=O)c4ccccc4)cc(NC(=O)c4cccc(N)c4)c3)c2)c1`: the Cleavage with Nucleic Acid [1] came to 35%; with Nucleic Acid [2] it was 65%; in the experiment on Nucleic Acid [3], 0%.

For `Nc1cccc(C(=O)Nc2cc(NC(=O)c3ccccc3)cc(C(=O)NCCCCNC(=O)c3cc(NC(=O)c4ccccc4)cc(NC(=O)c4cccc(N)c4)c3)c2)c1`, the Cleavage in the experiment with Nucleic Acid [10] was 63%; with Nucleic Acid [11], 37%; in the experiment with Nucleic Acid [12], 0%.

`CCOC(=O)c1cc(N)cc([N+](=O)[O-])c1`: the Cleavage in the experiment with Nucleic Acid [13] was 0%; in the experiment on Nucleic Acid [14] it was 90%; in the experiment on Nucleic Acid [8], 10%.

As for `CCOC(=O)c1cc(NC(=O)c2cccc([N+](=O)[O-])c2)cc(NC(=O)c2cc(N)cc([N+](=O)[O-])c2)c1`, the Cleavage in the experiment on Nucleic Acid [4] amounted to 0%; in the experiment on Nucleic Acid [8], 56%; in the experiment with Nucleic Acid [9] it was 44%.

For the molecule `Nc1cccc(C(=O)Nc2cc(NC(=O)c3ccccc3)cc(C(=O)NCCCNC(=O)c3cc(NC(=O)c4ccccc4)cc(NC(=O)c4cccc(N)c4)c3)c2)c1`, the Cleavage in the experiment on Nucleic Acid [15] is 25%; in the experiment with Nucleic Acid [16], 26%; in the experiment with Nucleic Acid [17], 0%; in the experiment with Nucleic Acid [18], 0%; with Nucleic Acid [19] it was 73%; in the experiment with Nucleic Acid [20], 65%. Also, the Cleavage was found to be 95% in the experiment with Nucleic Acid [21]; 75% in the experiment with Nucleic Acid [22]; 74% with Nucleic Acid [23]; 0% in the experiment with Nucleic Acid [24]; 24% in the experiment with Nucleic Acid [1]; 5% in the experiment with Nucleic Acid [25]. Further, the Cleavage in the experiment with Nucleic Acid [26] was 99%; in the experiment with Nucleic Acid [27] it was 1%; in the experiment on Nucleic Acid [28], 0%; in the experiment with Nucleic Acid [29] it was 0%; in the experiment on Nucleic Acid [30] it was 27%; in the experiment with Nucleic Acid [2], 76%. Moreover, the figures for the Cleavage in the experiment on Nucleic Acid [3], in the experiment on Nucleic Acid [31] and with Nucleic Acid [32] were 0%, 0% and 35%, respectively.

With `Nc1cccc(C(=O)Nc2cc(NC(=O)c3ccccc3)cc(C(=O)NCCNC(=O)c3cc(NC(=O)c4ccccc4)cc(NC(=O)c4cccc(N)c4)c3)c2)c1`, the Cleavage in the experiment with Nucleic Acid [17] amounted to 0%; with Nucleic Acid [1] it was 35%; with Nucleic Acid [26] it was 93%; in the experiment on Nucleic Acid [27] it was 7%; in the experiment on Nucleic Acid [2] it was 65%; with Nucleic Acid [3], 0%.

On to `COc1cc(N)cc(C(=O)Nc2cc(NC(=O)c3ccccc3)cc(C(=O)NCCNC(=O)c3cc(NC(=O)c4ccccc4)cc(NC(=O)c4cc(N)cc(OC)c4)c3)c2)c1`, for which the Cleavage in the experiment on Nucleic Acid [33] was 0% and 1%.

For the molecule `Nc1cc(C(=O)Nc2cc(NC(=O)c3ccccc3)cc(C(=O)NCCNC(=O)c3cc(NC(=O)c4ccccc4)cc(NC(=O)c4cc(N)cc([N+](=O)[O-])c4)c3)c2)cc([N+](=O)[O-])c1`, the Cleavage in the experiment with Nucleic Acid [17] came to 0%; with Nucleic Acid [1], 36%; in the experiment with Nucleic Acid [26], 90%; with Nucleic Acid [27], 10%; in the experiment on Nucleic Acid [2], 64%; with Nucleic Acid [3], 0%.

Consider `Nc1cccc(C(=O)Nc2cc(NC(=O)c3ccccc3)cc(C(=O)NCCCCCCNC(=O)c3cc(NC(=O)c4ccccc4)cc(NC(=O)c4cccc(N)c4)c3)c2)c1`, for which the Cleavage was 62% in the experiment with Nucleic Acid [10], 38% in the experiment on Nucleic Acid [11] and 0% in the experiment on Nucleic Acid [12].

As for `CCOC(=O)c1cc(NC(=O)c2cc(N)cc(OC)c2)cc(NC(=O)c2cccc([N+](=O)[O-])c2)c1`, the Cleavage turned out to be 0% with Nucleic Acid [4], 89% in the experiment with Nucleic Acid [8] and 11% in the experiment with Nucleic Acid [9].
